Each block holds one molecule with its values, some of them ahead of it.
Experiments:
[1] = tested on: H3K27 methylation in G401 cell; test: ELISA (H3K27 methylation) assay in G401 cells; format: cell-based, human; details: Homo sapiens, G-401, H3K27 methylation ELISA, read-out: (c) IC50 ELISA Qualified
Method in brief: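 IC50 from dose-response fit of percent inhibition relative to DMSO, using H3K27me3/me2 ELISA signal (ECL) normalized to histone H3. Histones HCl-extracted after 48 h compound exposure of G401 cells at up to 20 μM, 8- or 12-point 3-fold series.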

EED (1-441)-His protein = target: T1, EED (1-441)-His protein (Homo sapiens, UniProt O75530); test: EED-H3K27Me3 peptide competition binding assay by AlphaScreen; details: EED-H3K27Me3 peptide competition, AlphaScreen; read-out: (a) IC50 EED Alphascreen binding Qualified
T1 construct: 30 nM EED (1-441)-His protein
Method in brief: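 Serially diluted compound (12 points, 3-fold) incubated 20 min with 30 nM EED(1-441)-His and 15 nM biotin-H3K27Me3(19-33) peptide in 25 mM HEPES pH 8, 0.02% Tween-20, 0.5% BSA. Ni-chelate acceptor/streptavidin donor beads (10 μg/mL each) added, 1 h rt dark; 615 nm emission normalized to controls, dose-response fit for IC50.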

T1 sequence (O75530 whole entry): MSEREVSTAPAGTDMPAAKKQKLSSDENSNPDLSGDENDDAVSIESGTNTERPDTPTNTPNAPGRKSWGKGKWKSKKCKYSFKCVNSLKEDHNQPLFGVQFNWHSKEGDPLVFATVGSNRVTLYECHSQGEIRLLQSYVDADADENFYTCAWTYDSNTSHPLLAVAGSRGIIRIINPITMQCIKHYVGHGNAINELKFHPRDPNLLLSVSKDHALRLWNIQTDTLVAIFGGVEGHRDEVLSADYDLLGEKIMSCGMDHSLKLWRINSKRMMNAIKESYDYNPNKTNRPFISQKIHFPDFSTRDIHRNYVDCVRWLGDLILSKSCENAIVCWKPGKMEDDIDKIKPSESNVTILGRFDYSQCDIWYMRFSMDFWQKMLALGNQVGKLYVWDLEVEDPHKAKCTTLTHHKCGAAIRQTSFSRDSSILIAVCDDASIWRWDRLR

IC50 [1]: 318 nM
IC50 (EED (1-441)-His protein): 270 nM
SMILES: COc1cccc(F)c1CNc1ccc(-c2cnccc2C(F)(F)F)c2nncn12 [Example 202, N-(2-fluoro-6-methoxybenzyl)-8-(4-(trifluoromethyl)pyridin-3-yl)-[1,2,4]triazolo[4,3-a] pyridin-5-amine]

IC50 [1]: 95.8 nM
IC50 (EED (1-441)-His protein): 143 nM
SMILES: COc1cccc(F)c1CNc1ccc(-c2cncc(OCCS(C)(=O)=O)c2)c2nncn12 [Example 204, N-(2-fluoro-6-methoxybenzyl)-8-(5-(2-(methylsulfonyl)ethoxy)pyridin-3-yl)-[1,2,4]triazolo[4,3-a] pyridin-5-amine]

IC50 [1]: 151 nM
IC50 (EED (1-441)-His protein): 103 nM
SMILES: COc1cccc(F)c1CNc1ccc(-c2ccccc2C)c2nncn12 [Example 211, N-(2-fluoro-6-methoxybenzyl)-8-(o-tolyl)-[1,2,4] triazolo[4,3-a]pyridin-5-amine]

IC50 [1]: 454 nM
IC50 (EED (1-441)-His protein): 177 nM
SMILES: COc1ccc(F)c(F)c1CNc1ccc(-c2cccnc2)c2nncn12 [Example 242, N-(2,3-difluoro-6-methoxybenzyl)-8-(pyridin-3-yl)-[1,2,4]triazolo[4,3-a]pyridin-5-amine]

IC50 [1]: 349 nM
IC50 (EED (1-441)-His protein): 329 nM
SMILES: COc1ccc(F)c(F)c1CNc1ccc(-c2ccncc2)c2nncn12 [Example 243, N-(2,3-difluoro-6-methoxybenzyl)-8-(pyridin-4-yl)-[1,2,4]triazolo[4,3-a]pyridin-5-amine]

IC50 [1]: 277 nM
IC50 (EED (1-441)-His protein): 231 nM
SMILES: COc1ccc(F)c(F)c1CNc1ccc(-c2ccc(S(C)(=O)=O)cc2)c2nncn12 [Example 244, N-(2,3-difluoro-6-methoxybenzyl)-8-(4-(methylsulfonyl)phenyl)-[1,2,4]triazolo[4,3-a]pyridin-5-amine]

IC50 [1]: 761 nM
IC50 (EED (1-441)-His protein): 263 nM
SMILES: CCc1ccccc1-c1ccc(NCc2c(F)cccc2OC)n2cnnc12 [Example 254, 8-(2-ethylphenyl)-N-(2-fluoro-6-methoxybenzyl)-[1,2,4]triazolo[4,3-a]pyridin-5-amine]

IC50 [1]: ≥ 62500 nM
IC50 (EED (1-441)-His protein): 906 nM
SMILES: COc1cccc(F)c1CNc1ccc(-c2ccccc2C(C)C)c2nncn12 [Example 257, N-(2-fluoro-6-methoxybenzyl)-8-(2-isopropylphenyl)-[1,2,4]triazolo[4,3-a] pyridin-5-amine]

Continued, molecule first:

SMILES: COc1cccc(F)c1CNc1ccc(-c2cc(F)c(N)cc2F)c2nncn12 [Example 208, 8-(4-amino-2,5-difluorophenyl)-N-(2-fluoro-6-methoxybenzyl)-[1,2,4]triazolo[4,3-a]pyridin-5-amine]
IC50 [1]: 140 nM
IC50 (EED (1-441)-His protein): 105 nM

SMILES: COc1cccc(F)c1CNc1ccc(-c2ccc(C#N)cc2C)c2nncn12 [Example 209, 4-(5-((2-fluoro-6-methoxybenzyl)amino)-[1,2,4]triazolo[4,3-a]pyridin-8-yl)-3-methylbenzonitrile]
IC50 [1]: 76.2 nM
IC50 (EED (1-441)-His protein): 119 nM

SMILES: COc1cccc(F)c1CNc1ccc(-c2ccc(Cl)cc2Cl)c2nncn12 [Example 224, 8-(2,4-dichlorophenyl)-N-(2-fluoro-6-methoxybenzyl)-[1,2,4]triazolo[4,3-a]pyridin-5-amine]
IC50 [1]: 220 nM
IC50 (EED (1-441)-His protein): 137 nM

SMILES: COc1cccc(F)c1CNc1ccc(-c2cn(C(C)C)nc2C(F)(F)F)c2nncn12 [Example 255, N-(2-fluoro-6-methoxybenzyl)-8-(1-isopropyl-3-(trifluoromethyl)-1H-pyrazol-4-yl)-[1,2,4]triazolo[4,3-a] pyridin-5-amine]
IC50 [1]: 76.8 nM
IC50 (EED (1-441)-His protein): 189 nM

SMILES: COc1cccc(F)c1CNc1ccc(-c2cnc(N3CCOCC3)nc2C)c2nncn12 [Example 261, N-(2-fluoro-6-methoxybenzyl)-8-(4-methyl-2-morpholinopyrimidin-5-yl)-[1,2,4]triazolo[4,3-a]pyridin-5-amine]
IC50 [1]: 7.8 nM
IC50 (EED (1-441)-His protein): 17.6 nM

SMILES: COc1cccc(F)c1CNc1ccc(-c2cnc(N3CCOCC3)cc2C)c2nncn12 [Example 262, N-(2-fluoro-6-methoxybenzyl)-8-(4-methyl-6-morpholinopyridin-3-yl)-[1,2,4]triazolo[4,3-a]pyridin-5-amine]
IC50 [1]: 15.6 nM
IC50 (EED (1-441)-His protein): 12.4 nM

From patent US10689378B2, “Triazolopyridine compounds and uses thereof” (Novartis AG, priority 2016, dated 2020)
